Measurements published in ChEMBL document CHEMBL1201862, “PubChem BioAssay data set” (2004).
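Tested at 5 concentrations; 48 h exposure; 96-well plates; endpoints linearly interpolated, else capped at highest concentration. Abbreviation: GI50, concentration required for 50% inhibition of growth.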 Activity calls are given as the source filed them. No stated cut-off is given here; in the data, active = GI50 up to about 1.1 µM and inactive = higher.

Key:
Test in all cases: NCI anticancer screen, dose series, 48 h
786-0 = tested on: 786-0
A498 = tested on: A498
A549 = tested on: A549
ACHN = tested on: ACHN
BT-549 = tested on: BT-549
CAKI-1 = tested on: CAKI-1
CCRF-CEM = tested on: CCRF-CEM
COLO 205 = tested on: COLO 205
DU-145 = tested on: DU-145
EKVX = tested on: EKVX
HCC 2998 = tested on: HCC 2998
HCT-116 = tested on: HCT-116
HCT-15 = tested on: HCT-15
HL-60 = tested on: HL-60
HOP-62 = tested on: HOP-62
HOP-92 = tested on: HOP-92
HT-29 = tested on: HT-29
Hs-578T = tested on: Hs-578T
IGROV-1 = tested on: IGROV-1
K562 = tested on: K562
KM12 = tested on: KM12
LOX IMVI = tested on: LOX IMVI
M14 = tested on: M14
MCF7 = tested on: MCF7
MDA-MB-231 = tested on: MDA-MB-231
MDA-MB-435 = tested on: MDA-MB-435
MDA-N = tested on: MDA-N
MOLT-4 = tested on: MOLT-4
Malme-3M = tested on: Malme-3M
NCI-H226 = tested on: NCI-H226
NCI-H23 = tested on: NCI-H23
NCI-H460 = tested on: NCI-H460
NCI-H522 = tested on: NCI-H522
NCI/ADR-RES = tested on: NCI/ADR-RES
OVCAR-3 = tested on: OVCAR-3
OVCAR-4 = tested on: OVCAR-4
OVCAR-5 = tested on: OVCAR-5
OVCAR-8 = tested on: OVCAR-8
PC-3 = tested on: PC-3
RPMI-8226 = tested on: RPMI-8226
RXF 393 = tested on: RXF 393
SF-268 = tested on: SF-268
SF-295 = tested on: SF-295
SF-539 = tested on: SF-539
SK-MEL-28 = tested on: SK-MEL-28
SK-MEL-2 = tested on: SK-MEL-2
SK-MEL-5 = tested on: SK-MEL-5
SK-OV-3 = tested on: SK-OV-3
SN12C = tested on: SN12C
SNB-19 = tested on: SNB-19
SNB-75 = tested on: SNB-75
SR = tested on: SR
SW-620 = tested on: SW-620
T47D = tested on: T47D
TK-10 = tested on: TK-10
U-251 = tested on: U-251
UACC-257 = tested on: UACC-257
UACC-62 = tested on: UACC-62
UO-31 = tested on: UO-31

Measured: GI50

COc1cc(/C=C/C(=O)O)ccc1OS(=O)(=O)O
> 100 µM: HCT-15
inactive: 786-0 > 100 µM | A498 > 100 µM | A549 > 100 µM | ACHN > 100 µM | BT-549 > 100 µM | CAKI-1 > 100 µM | CCRF-CEM > 100 µM | COLO 205 > 100 µM | DU-145 > 100 µM | EKVX > 100 µM | HCC 2998 > 100 µM | HCT-116 > 100 µM | HL-60 > 100 µM | HOP-62 > 100 µM | HOP-92 > 100 µM | HT-29 > 100 µM | Hs-578T > 100 µM | IGROV-1 > 100 µM | K562 > 100 µM | KM12 > 100 µM | LOX IMVI > 100 µM | M14 > 100 µM | MCF7 > 100 µM | MDA-MB-231 > 100 µM | MDA-MB-435 > 100 µM | MDA-N > 100 µM | MOLT-4 > 100 µM | Malme-3M > 100 µM | NCI-H226 > 100 µM | NCI-H23 > 100 µM | NCI-H460 > 100 µM | NCI-H522 > 100 µM | NCI/ADR-RES > 100 µM | OVCAR-3 > 100 µM | OVCAR-4 > 100 µM | OVCAR-5 > 100 µM | OVCAR-8 > 100 µM | PC-3 > 100 µM | RPMI-8226 > 100 µM | RXF 393 > 100 µM | SF-268 > 100 µM | SF-295 > 100 µM | SF-539 > 100 µM | SK-MEL-28 > 100 µM | SK-MEL-2 > 100 µM | SK-MEL-5 > 100 µM | SK-OV-3 > 100 µM | SN12C > 100 µM | SNB-19 > 100 µM | SNB-75 > 100 µM | SR > 100 µM | SW-620 > 100 µM | T47D > 100 µM | TK-10 > 100 µM | U-251 > 100 µM | UACC-257 > 100 µM | UACC-62 > 100 µM | UO-31 > 100 µM
